This passage reports Ki results from patent publication US8658642B2 (Axikin Pharmaceuticals, Inc., priority 2009, dated 2014).

The structures appear in SMILES notation.

Broadly, the Ki is a dissociation constant, usually derived from enzyme kinetics or from competition with a known ligand. A low value points to higher affinity.

This assay concerns the target T1, CCR3 (Homo sapiens, UniProt P51677).
T1 sequence (P51677 1-355): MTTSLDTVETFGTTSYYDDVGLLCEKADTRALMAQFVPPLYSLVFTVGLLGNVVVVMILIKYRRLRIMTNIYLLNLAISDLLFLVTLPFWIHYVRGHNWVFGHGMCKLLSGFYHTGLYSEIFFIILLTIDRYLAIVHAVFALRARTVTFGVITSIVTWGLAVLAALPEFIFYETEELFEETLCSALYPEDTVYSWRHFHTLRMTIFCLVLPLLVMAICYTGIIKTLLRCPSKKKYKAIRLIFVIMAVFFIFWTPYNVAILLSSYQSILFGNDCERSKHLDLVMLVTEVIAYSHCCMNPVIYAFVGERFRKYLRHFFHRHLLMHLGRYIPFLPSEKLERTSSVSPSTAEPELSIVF
Put plainly: CCR3 receptor binding assay ([125I]-labeled human eotaxin/CCL11 displacement on cells). The note with it: 0.1 nM [125I]-labeled human eotaxin/CCL11, 2×10^5 cells/well, 60 min at room temperature. The method, then:
CCR3 Receptor Binding Assay
Cells were washed once with PBS and resuspended in a binding buffer (25 mM HEPES pH 7.6, 5 mM MgCl2, 1 mM CaCl2, 0.5% BSA, 0.1% NaN3). […] of cell suspension (2×10^5 cells/well) and 0.1 nM [^125I]-labeled human eotaxin/CCL11 (2000 Ci/mmol specific activity) were mixed in a 96-well U-bottom polypropylene plate, and incubated for 60 min at room temperature for the binding reaction. The cell suspension was then transferred to a filtration plate (#MAFB, Millipore), and washed 3 times with the binding buffer containing 0.5 M NaCl, scintillant added, and the radioactivity was counted on a TopCount (Packard). For the determination of non-specific binding, the cell suspension and [^125I]-labeled human eotaxin/CCL11 were incubated in the presence of 500 nM of unlabeled human eotaxin/CCL11. See, lino et al., “Molecular cloning and functional characterization of cynomolgus monkey (Macaca fascicularis) CC chemokine receptor, CCR3,” Cytokine 2002, 19, 276-286.
`Cc1ccccc1C(=O)N1CCN(S(=O)(=O)c2cc(C#N)ccc2Oc2cc(Cl)cc(Cl)c2)CC1` [Compound 83, 4-(3,5-Dichlorophenoxy)-3-(4-(2-methylbenzoyl)piperazin-1-ylsulfonyl)benzonitrile] returned a Ki of 0.5 to 5 µM.

`N#Cc1ccc(Oc2cc(Cl)cc(Cl)c2)c(S(=O)(=O)N2CCN(C(=O)c3ccccc3Cl)CC2)c1` [Compound 84, 3-(4-(2-Chlorobenzoyl)piperazin-1-ylsulfonyl)-4-(3,5-dichlorophenoxy)benzonitrile] came in with a Ki of 0.5 to 5 µM.

Regarding `N#Cc1ccc(Oc2cc(Cl)cc(Cl)c2)c(S(=O)(=O)N2CCN(C(=O)c3ccccc3F)CC2)c1` [Compound 85, 4-(3,5-Dichlorophenoxy)-3-(4-(2-fluorobenzoyl)piperazin-1-ylsulfonyl)benzonitrile], the Ki lay within 0.5 to 5 µM.

In the case of `N#Cc1ccc(Oc2cc(Cl)cc(Cl)c2)c(S(=O)(=O)N2CCN(C(=O)c3cccc(F)c3)CC2)c1` [Compound 86, 4-(3,5-Dichlorophenoxy)-3-(4-(3-fluorobenzoyl)piperazin-1-ylsulfonyl)benzonitrile], the Ki was above 5 µM.

The compound `N#Cc1ccc(Oc2cc(Cl)cc(Cl)c2)c(S(=O)(=O)N2CCN(C(=O)c3ccc(F)cc3)CC2)c1` [Compound 87, 4-(3,5-Dichlorophenoxy)-3-(4-(4-fluorobenzoyl)piperazin-1-ylsulfonyl)benzonitrile] yielded a Ki above 5 µM.

`Cc1cc(C)cc(Sc2ccc(C#N)cc2S(=O)(=O)N2CCN(C(=O)c3ccc(C(F)(F)F)cc3)CC2)c1` [Compound 88, 4-(3,5-Dimethylphenylthio)-3-(4-(4-(trifluoromethyl)benzoyl)piperazin-1-ylsulfonyl)benzonitrile] came in with a Ki above 5 µM.

`Cc1cc(C)cc(Sc2ccc(C#N)cc2S(=O)(=O)N2CCN(C(=O)c3ccccc3)CC2)c1` [Compound 89, 3-(4-Benzoylpiperazin-1-ylsulfonyl)-4-(3,5-dimethylphenylthio)benzonitrile] gave a Ki of 0.05 to 0.5 µM.

The compound `Cc1ccc(C(=O)N2CCN(S(=O)(=O)c3cc(C#N)ccc3Sc3cc(C)cc(C)c3)CC2)cc1` [Compound 90, 4-(3,5-Dimethylphenylthio)-3-(4-(4-methylbenzoyl)piperazin-1-ylsulfonyl)benzonitrile] gave a Ki of 0.05 to 0.5 µM.

In turn, `Cc1cc(C)cc(Sc2ccc(C#N)cc2S(=O)(=O)N2CCN(C(=O)c3cccc(C)c3)CC2)c1` [Compound 91, 4-(3,5-Dimethylphenylthio)-3-(4-(3-methylbenzoyl)piperazin-1-ylsulfonyl)benzonitrile] came in with a Ki of 0.05 to 0.5 µM.

Consider `Cc1cc(C)cc(Sc2ccc(C#N)cc2S(=O)(=O)N2CCN(C(=O)c3ccccc3C)CC2)c1` [Compound 92, 4-(3,5-Dimethylphenylthio)-3-(4-(2-methylbenzoyl)piperazin-1-ylsulfonyl)benzonitrile], for which the Ki was above 5 µM.

The compound `Cc1cc(C)cc(Sc2ccc(C#N)cc2S(=O)(=O)N2CCN(C(=O)Nc3cccc(F)c3)CC2)c1` [Compound 93] returned a Ki of 0.05 to 0.5 µM.

`CC(C)NC(=S)N1CCN(S(=O)(=O)c2cc(C#N)ccc2Oc2cc(Cl)cc(Cl)c2)CC1` [Compound 95] yielded a Ki of 0.05 to 0.5 µM.

Take `N#Cc1ccc(Oc2cc(Cl)cc(Cl)c2)c(S(=O)(=O)N2CCN(C(=O)Oc3ccccc3)CC2)c1` [Compound 96]: the Ki is 0.5 to 5 µM.

For the compound `N#Cc1ccc(Oc2cc(Cl)cc(Cl)c2)c(S(=O)(=O)N2CCN(C(=O)NCc3ccccc3)CC2)c1` [Compound 97], the Ki lay within 0.05 to 0.5 µM.

`N#Cc1ccc(Sc2cc(Cl)cc(Cl)c2)c(S(=O)(=O)N2CCN(C(=O)c3ccc(C(F)(F)F)cc3)CC2)c1` [Compound 98]: the Ki was above 5 µM.

Compound `N#Cc1ccc(Sc2cc(Cl)cc(Cl)c2)c(S(=O)(=O)N2CCN(C(=O)c3ccccc3)CC2)c1` [Compound 99] came in with an inhibitory constant (Ki) above 5 µM.

Compound `CC(C)NC(=O)N1CCN(S(=O)(=O)c2cc(C#N)ccc2Sc2cc(Cl)cc(Cl)c2)CC1` [Compound 100] returned a Ki above 5 µM.

Compound `CC(C)NC(=S)N1CCN(S(=O)(=O)c2cc(C#N)ccc2Sc2cc(Cl)cc(Cl)c2)CC1` [Compound 101] yielded an inhibition constant (Ki) above 5 µM.

Compound `Cc1cc(C)cc(Oc2ccc(C#N)cc2S(=O)(=O)N2CCN(C(=S)NC(C)C)CC2)c1` [Compound 103] gave a Ki above 5 µM.

As to `Cc1ccc(C(=O)N2CCN(S(=O)(=O)c3cc(C#N)ccc3Sc3cc(Cl)cc(Cl)c3)CC2)cc1` [Compound 104], the Ki was above 5 µM.

As to `Cc1cccc(C(=O)N2CCN(S(=O)(=O)c3cc(C#N)ccc3Sc3cc(Cl)cc(Cl)c3)CC2)c1` [Compound 105], the Ki is above 5 µM.

Compound `Cc1ccccc1C(=O)N1CCN(S(=O)(=O)c2cc(C#N)ccc2Sc2cc(Cl)cc(Cl)c2)CC1` [Compound 106] displayed an inhibitory constant (Ki) above 5 µM.

In turn, `CC(=O)N1CCN(S(=O)(=O)c2cc(C#N)ccc2Oc2cc(C)cc(C)c2)CC1` [Compound 107] came in with a Ki above 5 µM.

`Cc1cc(C)cc(Oc2ccc(C#N)cc2S(=O)(=O)N2CCN(C(=O)C(C)C)CC2)c1` [Compound 108]: the inhibition constant (Ki) is above 5 µM.

In turn, `CC(=O)N1CCN(S(=O)(=O)c2cc(C#N)ccc2Oc2cc(Cl)cc(Cl)c2)CC1` [Compound 109] gave a Ki of at most 0.05 µM.

In the case of `CC(C)C(=O)N1CCN(S(=O)(=O)c2cc(C#N)ccc2Oc2cc(Cl)cc(Cl)c2)CC1` [Compound 110], the Ki is at most 0.05 µM.

`CC(=O)N1CCN(S(=O)(=O)c2cc(C#N)ccc2Sc2cc(Cl)cc(Cl)c2)CC1` [Compound 111] displayed a Ki of at most 0.05 µM.

On to `CC(C)C(=O)N1CCN(S(=O)(=O)c2cc(C#N)ccc2Sc2cc(Cl)cc(Cl)c2)CC1` [Compound 112], for which the Ki was above 5 µM.

As to `N#Cc1ccc(Sc2cc(Cl)cc(Cl)c2)c(S(=O)(=O)N2CCN(C(=O)c3cccc(F)c3)CC2)c1` [Compound 113], the Ki was above 5 µM.

`Cc1ccc(C(=O)N2CCN(S(=O)(=O)c3cc(C#N)ccc3Oc3cc(C)cc(C)c3)CC2)cc1` [Compound 114] registered a Ki of 0.5 to 5 µM.

`Cc1ccc(NC(=O)N2CCN(S(=O)(=O)c3cc(C#N)ccc3Oc3cc(C)cc(C)c3)CC2)cc1` [Compound 115]: the Ki was above 5 µM.

Regarding `Cc1cc(C)cc(Oc2ccc(C#N)cc2S(=O)(=O)N2CCN(C(=O)Nc3ccc(C#N)cc3)CC2)c1` [Compound 116], the Ki was above 5 µM.

Compound `COc1ccc(C(=O)N2CCN(S(=O)(=O)c3cc(C#N)ccc3Oc3cc(C)cc(C)c3)CC2)cc1` [Compound 117] displayed a Ki above 5 µM.

`COc1ccc(NC(=O)N2CCN(S(=O)(=O)c3cc(C#N)ccc3Oc3cc(C)cc(C)c3)CC2)cc1` [Compound 118]: the Ki is above 5 µM.

Take `Cc1cc(C)cc(Oc2ccc(C#N)cc2S(=O)(=O)N2CCN(C(=O)Nc3ccc([N+](=O)[O-])cc3)CC2)c1` [Compound 119]: the Ki was above 5 µM.

Compound `CCN(CC)C(=O)N1CCN(S(=O)(=O)c2cc(C#N)ccc2Oc2cc(C)cc(C)c2)CC1` [Compound 120] had a Ki above 5 µM.

Regarding `Cc1cc(C)cc(Oc2ccc(C#N)cc2S(=O)(=O)N2CCN(C(=S)N(C)C)CC2)c1` [Compound 121], the Ki was above 5 µM.

`N#Cc1ccc(Oc2cc(Cl)cc(Cl)c2)c(S(=O)(=O)N2CCN(C(=O)c3ccco3)CC2)c1` [Compound 122] returned a Ki above 5 µM.

In turn, `N#Cc1ccc(Oc2cc(Cl)cc(Cl)c2)c(S(=O)(=O)N2CCN(C(=O)c3cccs3)CC2)c1` [Compound 123] registered a Ki above 5 µM.

With `N#Cc1ccc(Oc2cc(Cl)cc(Cl)c2)c(S(=O)(=O)N2CCN(C(=O)c3ccno3)CC2)c1` [Compound 124], the Ki lay within 0.05 to 0.5 µM.

`N#Cc1ccc(Oc2cc(Cl)cc(Cl)c2)c(S(=O)(=O)N2CCN(C(N)=O)CC2)c1` [Compound 125]: the Ki is at most 0.05 µM.

Regarding `Cc1cc(C(=O)N2CCN(S(=O)(=O)c3cc(C#N)ccc3Oc3cc(Cl)cc(Cl)c3)CC2)n(C)n1` [Compound 126], the Ki is above 5 µM.

The compound `Cc1nnsc1C(=O)N1CCN(S(=O)(=O)c2cc(C#N)ccc2Oc2cc(Cl)cc(Cl)c2)CC1` [Compound 127] yielded a Ki of at most 0.05 µM.

For `N#Cc1ccc(Oc2cc(Cl)cc(Cl)c2)c(S(=O)(=O)N2CCN(C(=O)c3ccccn3)CC2)c1` [Compound 128], the Ki was in the range of 0.5 to 5 µM.

Turning to `N#Cc1ccc(Oc2cc(Cl)cc(Cl)c2)c(S(=O)(=O)N2CCN(C(=O)c3cc4ccccc4o3)CC2)c1` [Compound 129], the Ki was above 5 µM.

Compound `N#Cc1ccc(Oc2cc(Cl)cc(Cl)c2)c(S(=O)(=O)N2CCN(C(=O)c3ccc4nonc4c3)CC2)c1` [Compound 130] registered a Ki above 5 µM.

As for `N#Cc1ccc(Oc2cc(Cl)cc(Cl)c2)c(S(=O)(=O)N2CCN(C(=O)c3cc4ccccc4s3)CC2)c1` [Compound 131], the Ki is above 5 µM.

In turn, `N#Cc1ccc(Oc2cc(Cl)cc(Cl)c2)c(S(=O)(=O)N2CCN(C(=O)c3nc4ccccc4s3)CC2)c1` [Compound 132] showed a Ki above 5 µM.

Regarding `N#Cc1ccc(Oc2cc(Cl)cc(Cl)c2)c(S(=O)(=O)N2CCN(C(=O)c3cnccn3)CC2)c1` [Compound 133], the inhibition constant Ki lay within 0.05 to 0.5 µM.

As to `N#Cc1ccc(Oc2cc(Cl)cc(Cl)c2)c(S(=O)(=O)N2CCN(C(=O)N3CCOCC3)CC2)c1` [Compound 134], the Ki was in the range of 0.05 to 0.5 µM.
